The values below come from patent US9198846B2, “Basic amino acid derivative” (AJINOMOTO CO., INC., priority 2012, dated 2015).

Each structure is given as a SMILES string.

This data set is described as follows: Gelling ability of basic amino acid derivatives (test tube tilting, visual appearance). The class given is physicochemical. The arrangement: key to gel appearance: GT: transparent gel; GTL: translucent gel; GO: opaque gel. The note with it: heated to 100° C., stood at 25° C. for 2 hr. As for the experimental part:
The gelling ability of various basic amino acid derivatives prepared in Production Examples 1-4, 7, 9 and 10 was confirmed. Test tube equipped with a cover was filled with water, saline, phosphate buffered saline (hereinafter indicated as PBS), and aqueous NaCl solution or aqueous KCl solution, and a basic amino acid derivative was added at various concentrations. The mixture was heated to 100° C. to achieve homogeneous dissolution, and stood at 25° C. for 2 hr. After allowing to cool, the test tube was tilted, and the absence of fluidity was judged as gellation, and the appearance was visually observed.
Abbreviations mean the following. • GT: transparent gel • GTL: translucent gel • GO: opaque gel

As to `CCCCCCCCCCCC(=O)NCCCC[C@H](NC(=O)CC(CCCCCCCCCC)C(=O)[O-])C(=O)O.[Na+]` (stereo partly drawn) [Production Example 3, N^ε-lauroyl-N^α-(3-carboxytridecanoyl)-L-lysine monosodium salt], the gel appearance result by setting is: (0.1M aqueous KCl solution) “GTL”; (0.1M aqueous NaCl solution) “GTL”; (1.0M aqueous KCl solution) “GO”; (PBS) “GO”; (saline) “GTL”; (water) “GTL”. Further, the minimum gelling concentration runs as follows: (0.1M aqueous KCl solution) 20 g/L; (0.1M aqueous NaCl solution) 20 g/L; (1.0M aqueous KCl solution) 20 g/L; (PBS) 60 g/L; (saline) 50 g/L; (water) 50 g/L.
With `CCCCCCCCCCCC(=O)NCCCC[C@H](NC(=O)CC(CCCCCCCCCC)C(=O)[O-])C(=O)O.[K+]` (stereo partly drawn) [Production Example 4, N^ε-lauroyl-N^α-(3-carboxytridecanoyl)-L-lysine monopotassium salt], the gel appearance entry is “GTL” (0.1M aqueous KCl solution); “GTL” (0.1M aqueous NaCl solution); “GO” (1.0M aqueous KCl solution); “GO” (PBS); “GTL” (saline); “GTL” (water). Moreover, the minimum gelling concentration is reported as 40 g/L (0.1M aqueous KCl solution); 20 g/L (0.1M aqueous NaCl solution); 20 g/L (1.0M aqueous KCl solution); 60 g/L (PBS); 50 g/L (saline); 60 g/L (water).
Turning to `CCCCCCCCCCCC(=O)NCCCC[C@H](NC(=O)CC(CCCCCCCCCC)C(=O)[O-])C(=O)OCC.[Na+]` (stereo partly drawn) [Production Example 1, N^ε-lauroyl-N^α-(3-carboxytridecanoyl)-L-lysine ethyl ester sodium salt], the gel appearance result by setting is: (0.1M aqueous KCl solution) “GTL”; (0.1M aqueous NaCl solution) “GTL”; (saline) “GTL”; (water) “GTL”. The minimum gelling concentration is, setting by setting: (0.1M aqueous KCl solution) 15 g/L; (0.1M aqueous NaCl solution) 10 g/L; (saline) 20 g/L; (water) 25 g/L.
`CCCCCCCCCCCC(=O)NCCCC[C@H](NC(=O)CCCCCCCCC(=O)[O-])C(=O)O.[K+]` [Production Example 10, N^ε-lauroyl-N^α-(9-carboxynonanoyl)-L-lysine monopotassium salt]: the gel appearance entry runs as follows: (0.1M aqueous KCl solution) “GT”; (0.1M aqueous NaCl solution) “GT”; (1.0M aqueous KCl solution) “GT”; (1.0M aqueous NaCl solution) “GT”; (PBS) “GT”; (saline) “GT”. Moreover, the gel appearance entry (water) is recorded as “GTL”. Also, the minimum gelling concentration reads like this: (0.1M aqueous KCl solution) 4 g/L; (0.1M aqueous NaCl solution) 10 g/L; (1.0M aqueous KCl solution) 4 g/L; (1.0M aqueous NaCl solution) 4 g/L; (PBS) 4 g/L; (saline) 4 g/L. For the same molecule, the minimum gelling concentration (water) came to 30 g/L.
Turning to `CCCCCCCCCCCC(=O)NCCCC[C@H](NC(=O)CCCCCCC(=O)[O-])C(=O)O.[Na+]` [Production Example 7, N^ε-lauroyl-N^α-(7-carboxyheptanoyl)-L-lysine monosodium salt], the gel appearance entry is, setting by setting: (0.1M aqueous KCl solution) “GT”; (0.1M aqueous NaCl solution) “GTL”; (1.0M aqueous KCl solution) “GT”; (1.0M aqueous NaCl solution) “GT”; (PBS) “GT”; (saline) “GT”. Moreover, the minimum gelling concentration amounted to 30 g/L (0.1M aqueous KCl solution); 30 g/L (0.1M aqueous NaCl solution); 4 g/L (1.0M aqueous KCl solution); 4 g/L (1.0M aqueous NaCl solution); 30 g/L (PBS); 30 g/L (saline).
Consider `CCCCCCCCCCCC(=O)NCCCC[C@H](NC(=O)CC(CCCCCCCCCC)C(=O)[O-])C(=O)OCC.[K+]` (stereo partly drawn) [Production Example 2, N^ε-lauroyl-N^α-(3-carboxytridecanoyl)-L-lysine ethyl ester potassium salt], for which the gel appearance entry runs as follows: (0.1M aqueous KCl solution) “GTL”; (0.1M aqueous NaCl solution) “GTL”; (saline) “GTL”; (water) “GTL”. The minimum gelling concentration (0.1M aqueous KCl solution) is on record as 10 g/L, the minimum gelling concentration (0.1M aqueous NaCl solution) worked out at 10 g/L, the minimum gelling concentration (saline) was 20 g/L and the minimum gelling concentration (water) is recorded as 20 g/L.
For the molecule `CCCCCCCCCCCC(=O)NCCCC[C@H](NC(=O)CCCCCCCCC(=O)[O-])C(=O)O.[Na+]` [Production Example 9, N^ε-lauroyl-N^α-(9-carboxynonanoyl)-L-lysine monosodium salt], the gel appearance entry reads like this: (0.1M aqueous KCl solution) “GT”; (0.1M aqueous NaCl solution) “GT”; (1.0M aqueous KCl solution) “GT”; (1.0M aqueous NaCl solution) “GT”; (PBS) “GT”; (saline) “GT”. Further, under “water”, the gel appearance result is reported as “GTL”. Besides, the minimum gelling concentration is recorded as 4 g/L (0.1M aqueous KCl solution); 4 g/L (0.1M aqueous NaCl solution); 4 g/L (1.0M aqueous KCl solution); 4 g/L (1.0M aqueous NaCl solution); 4 g/L (PBS); 4 g/L (saline). For the setting “water”, the minimum gelling concentration amounted to 30 g/L.
